According to ChEMBL document CHEMBL1629569, “Widespread dissemination of aminoglycoside resistance genes armA and rmtB in Klebsiella pneumoniae isolates in Taiwan producing CTX-M-type extended-spectrum beta-lactamases” (2009):
Converted amounts (≈) assume the structure as drawn.

How the values were obtained:
Format in all cases: functional
[1] = system: Klebsiella pneumoniae; assay: Antimicrobial activity against ESBL-producing Klebsiella pneumoniae clinical isolate assessed as resistant isolates
[2] = system: Klebsiella pneumoniae; assay: Antimicrobial activity against ESBL-producing Klebsiella pneumoniae clinical isolate assessed as susceptible isolates
[3] = system: Klebsiella pneumoniae; assay: Antimicrobial activity against ESBL-producing Klebsiella pneumoniae clinical isolate by broth microdilution method

CC(C)(O/N=C(\C(=O)N[C@@H]1C(=O)N2C(C(=O)[O-])=C(C[n+]3ccccc3)CS[C@H]12)c1csc(N)n1)C(=O)O [CEFTAZIDIME]
Activity [1]: 158 isolates
Activity [2]: 38 isolates
MIC50 [3]: 32 µg/mL (≈ 58.5 µM)
MIC90 [3]: 32 µg/mL (≈ 58.5 µM)

NCC[C@H](O)C(=O)N[C@@H]1C[C@H](N)[C@@H](O[C@H]2O[C@H](CN)[C@@H](O)[C@H](O)[C@H]2O)[C@H](O)[C@H]1O[C@H]1O[C@H](CO)[C@@H](O)[C@H](N)[C@H]1O [AMIKACIN]
Activity [1]: 102 isolates
Activity [2]: 106 isolates
MIC50 [3]: 32 µg/mL (≈ 54.6 µM)
MIC90 [3]: 64 µg/mL (≈ 109 µM)

CC1(C)S[C@@H]2[C@H](NC(=O)[C@H](N)c3ccccc3)C(=O)N2[C@H]1C(=O)O [AMPICILLIN]
Activity [1]: 235 isolates
Activity [2]: 0 isolates
MIC50 [3]: > 64 µg/mL
MIC90 [3]: > 64 µg/mL

CO[C@@]1(NC(=O)Cc2cccs2)C(=O)N2C(C(=O)O)=C(COC(N)=O)CS[C@@H]21 [CEFOXITIN]
Activity [1]: 95 isolates
Activity [2]: 102 isolates
MIC50 [3]: 16 µg/mL (≈ 37.4 µM)
MIC90 [3]: 32 µg/mL (≈ 74.9 µM)

C[C@@H](O)[C@H]1C(=O)N2C(C(=O)O)=C(SCCNC=N)C[C@H]12 [IMIPENEM ANHYDROUS]
Activity [1]: 2 isolates
Activity [2]: 230 isolates
MIC50 [3]: 0.25 µg/mL (≈ 0.835 µM)
MIC90 [3]: 2 µg/mL (≈ 6.68 µM)

CO/N=C(\C(=O)N[C@@H]1C(=O)N2C(C(=O)O)=C(COC(C)=O)CS[C@H]12)c1csc(N)n1 [CEFOTAXIME]
Activity [1]: 146 isolates
Activity [2]: 12 isolates
MIC50 [3]: 64 µg/mL (≈ 141 µM)
MIC90 [3]: 64 µg/mL (≈ 141 µM)

GENTAMICIN
Activity [2]: 21%
MIC50 [3]: 16 µg/mL
MIC90 [3]: 16 µg/mL
